These results are taken from patent publication US20230235277A1, “3D Tissue Culture Materials and Processes for Producing Same” (INSPHERO AG, priority 2014, published 2023).

“Also recorded” adds a separate entry of the source.

The subject of test [1] is human liver microtissues. Put plainly: Long-term toxicity testing with human liver microtissues, 14 days treatment with 3 re-dosing. Conditions: 336 h, read-out: IC50 value of toxicity (cell death), dose-response. It is filed as cell-based.
For test [2], the system named is 2D cultures of human hepatocytes. Put plainly: Toxicity in 2D cultures of human hepatocytes. It is filed as cell-based. To be noted: Hepatocyte, read-out: calculated IC50 value in 2D cultures of human hepatocytes.
The test system of test [3] is human liver microtissues. The experiment in a line: Inflammation-mediated toxicity testing with human liver microtissues in presence and absence of LPS. It is filed as cell-based.
The subject of test [4] is IL-6 secretion. Put plainly: Quantification of IL-6 secretion of liver microtissues by ELISA after LPS induction. It is filed as cell-based, human. Conditions: hepatosphere induced for 48 h with 10 µg/ml LPS. (In general: In an ELISA, binding on a coated surface is turned into a signal by an enzyme label.)

In general, IC50 refers to the concentration that gives 50% inhibition. As to `CC(=O)Nc1ccc(O)cc1` [acetaminophen], in test [1], the 50% inhibitory concentration (IC50) was determined as 754 µM. As for `O=C(O)Cc1ccccc1Nc1c(Cl)cccc1Cl` [diclofenac], the results for the concentration for half-maximal inhibition (IC50) in test [1] and in test [2] were 179 µM and 331 µM, respectively. For `N[C@@H]1[C@H]2CN(c3nc4c(cc3F)c(=O)c(C(=O)O)cn4-c3ccc(F)cc3F)C[C@@H]12` [trovafloxacin], the IC50 in test [3] (absence of LPS (−LPS), read-out: IC50 (hepatotoxic threshold) of induced toxicity without LPS) was determined as 220 µM; in test [3] (presence of LPS (+LPS), read-out: IC50 (hepatotoxic threshold) of induced toxicity in the presence of LPS), 71 µM. As to lipopolysaccharide [LPS], the “increase in IL-6 secretion” value in test [4] is given as “tenfold increase; also recorded: elevated levels of IL-6 secretion”.
